Measurements taken from US7598293B2, “Compounds and their use in medicine, process for their preparation and pharmaceutical compositions containing them” (Dr. Reddy's Laboratories, Inc., priority 2001, dated 2009).
Counter-ions that a name gives are not always drawn.

Assays:
hPPARγ1 = target: T1, hPPARγ1 (Homo sapiens, UniProt P37231); assay: Determination of hPPARγ activity (GAL4 luciferase reporter, transfected HEK-293 cells); assay type: cell-based; details: compound concentration 1 μM
T1 construct: expressed in transfected cells; host or cells: HEK-293
T1 sequence (P37231 238-503 limits assumed): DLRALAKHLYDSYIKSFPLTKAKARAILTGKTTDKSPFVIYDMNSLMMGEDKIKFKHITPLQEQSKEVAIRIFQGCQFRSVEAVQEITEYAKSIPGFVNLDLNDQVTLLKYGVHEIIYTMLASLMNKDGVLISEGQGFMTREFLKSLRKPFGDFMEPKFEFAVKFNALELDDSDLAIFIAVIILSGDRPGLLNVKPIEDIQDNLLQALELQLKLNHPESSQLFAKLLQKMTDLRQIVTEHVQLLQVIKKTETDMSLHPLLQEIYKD
Description: b) Determination of hPPARγ activity Ligand binding domain of hPPARγ1 is fused to DNA binding domain of Yeast transcription factor GAL4 in eucaryotic expression vector. Using lipofectamine (Gibco BRL, USA) as transfecting reagent HEK-293 cells are transfected with this plasmid and a reporter plasmid harboring the luciferase gene driven by a GAL4 specific promoter. Compound can be added at 1 μM concentration after 48 hrs of transfection and incubated overnight. Luciferase activity as a function of drug binding/activation capacity of PPARγ1 will be measured using Packard Luclite kit (Packard, USA) in Packard Top Count (Ivan Sadowski, Brendan Bell, Peter Broag and Melvyn Hollis. Gene. 1992. 118: 137-141; Guide to Eukaryotic Transfections with Cationic Lipid Reagents. Life Technologies, GIBCO BRL, USA).

hPPARα = target: T2, hPPARα (Homo sapiens, UniProt Q07869); assay: Determination of hPPARα activity (GAL4 luciferase reporter, transfected HEK-293 cells); assay type: cell-based; details: compound concentration 50 μM
T2 construct: expressed in transfected cells; host or cells: HEK-293
T2 sequence (Q07869 239-466 limits assumed): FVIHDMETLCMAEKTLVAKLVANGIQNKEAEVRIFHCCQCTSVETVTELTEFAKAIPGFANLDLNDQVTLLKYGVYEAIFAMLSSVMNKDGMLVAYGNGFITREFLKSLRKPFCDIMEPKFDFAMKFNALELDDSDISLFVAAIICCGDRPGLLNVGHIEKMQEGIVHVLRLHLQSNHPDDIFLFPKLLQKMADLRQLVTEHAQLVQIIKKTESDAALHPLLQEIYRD
Description: a) Determination of hPPARα activity Ligand binding domain of hPPARα was fused to DNA binding domain of Yeast transcription factor Gal 4 in eucaryotic expression vector. Using superfect (Qiagen, Germany) as transfecting reagent HEK-293 cells are transfected with this plasmid and a reporter plasmid harboring the luciferase gene driven by a GAL4 specific promoter. Compound can be added at different concentrations after 42 hrs of transfection and incubated overnight. Luciferase activity as a function of compound binding/activation capacity of PPARα will be measured using Packard Luclite kit (Packard, USA) in Top Count (Ivan Sadowski, Brendan Bell, Peter Broag and Melvyn Hollis. Gene. 1992. 118: 137-141; Superfect Transfection Reagent Handbook. February 1997. Qiagen, Germany).

C57BL/KsJ-db/db mice = assay: Efficacy in genetic models: blood sugar and triglyceride lowering in db/db mice; assay type: in vivo, mouse; details: 3 mg/kg oral, results after 6 days
Description: a) Efficacy in Genetic Models Mutation in colonies of laboratory animals and different sensitivities to dietary regimens has made the development of animal models with non-insulin dependent diabetes and hyperlipidemia associated with obesity and insulin resistance possible. Genetic models such as db/db and ob/ob (Diabetes, (1982) 31(1): 1-6) mice and zucker fa/fa rats have been developed by the various laboratories for understanding the pathophysiology of disease and testing the efficacy of new antidiabetic compounds (Diabetes, (1983) 32: 830-838; Annu. Rep. Sankyo Res. Lab. (1994). 46: 1-57). The homozygous animals, C57 BL/KsJ-db/db mice developed by Jackson Laboratory, US, are obese, hyperglycemic, hyperinsulinemic and insulin resistant (J. Clin. Invest., (1990) 85: 962-967), whereas heterozygous are lean and normoglycemic. In db/db model, mouse progressively develops insulinopenia with age, a feature commonly observed in late stages of human type II diabetes when blood sugar levels are insufficiently controlled. The state of pancreas and its course vary according to the models. Since this model resembles that of type II diabetes mellitus, the compounds of the present invention will be tested for blood sugar and triglycerides lowering activities.
Male C57BL/KsJ-db/db mice of 8 to 14 weeks age, having body weight range of 35 to 60 grams, bred at Dr. Reddy's Research Foundation (DRF) animal house, were used in the experiment. The mice are provided with standard feed (National Institute of Nutrition (NIN), Hyderabad, India) and acidified water, ad libitum. The animals having more than 350 mg/dl blood sugar will be used for testing. The number of animals in each group will be 4.
Test compounds are suspended on 0.25% carboxymethyl cellulose and administered to test group at a dose of 0.1 mg to 30 mg/kg through oral gavage daily for 6 days. The control group receives vehicle (dose 10 ml/kg). On 6th day the blood samples will be collected one hour after administration of test compounds/vehicle for assessing the biological activity.
The random blood sugar and triglyceride levels can be measured by collecting blood (100 μl) through orbital sinus, using heparinised capillary in tubes containing EDTA which was centrifuged to obtain plasma. The plasma glucose and triglyceride levels can be measured spectrometrically, by glucose oxidase and glycerol-3-PO4 oxidase/peroxidase enzyme (Dr. Reddy's Lab. Diagnostic Division Kits, Hyderabad, India) methods respectively.
The blood sugar and triglycerides lowering activities of the test compound are calculated according to the formula.
(§1) 1. Percent reduction in Blood sugar/triglycerides/total cholesterol will be calculated according to the formula:
(§2) [formula] • OC=Zero day control group value • OT=Zero day treated group value • TC=Test day control group value • TT=Test day treated group value

[1] = tested on: hypercholesterolemic Sprague Dawley rats; assay: Plasma triglyceride and cholesterol lowering activity in hypercholesterolemic rat models; assay type: in vivo; details: 1 mg/kg oral, results after 3 days
Description: b) Plasma triglyceride and Cholesterol lowering activity in hypercholesterolemic rat models Male Sprague Dawley rats (NIN stock) were bred in DRF animal house. Animals were maintained under 12 hour light and dark cycle at 25±1° C. Rats of 180-200 gram body weight range were used for the experiment. Animals are made hypercholesterolemic by feeding 2% cholesterol and 1% sodium cholate mixed with standard laboratory chow [National Institute of Nutrition (NIN), Hyderabad, India] for 6 days. Throughout the experimental period the animals were maintained on the same diet (Petit, D., Bonnefis, M. T., Rey, C and Infante, R. Effects of ciprofibrate on liver lipids and lipoprotein synthesis in normo- and hyperlipidemic rats. Atherosclerosis. 1988. 74: 215-225).
The test compounds can be administered orally at a dose 0.1 to 30 mg/kg/day for 3 days. Control group was treated with vehicle alone (0.25% Carboxymethylcellulose; dose 10 ml/kg).
The blood samples can be collected in fed state 1 hour after drug administration on 0 and 3 day of compound treatment. The blood can be collected from the retro-orbital sinus through heparinised capillary in EDTA containing tubes. After centrifugation, plasma sample will be separated for total cholesterol, HDL and triglyceride estimations. Measurement of plasma triglyceride, total cholesterol and HDL were done using commercial kits (Dr. Reddy's Laboratory, Diagnostic Division, India). LDL and VLDL cholesterol can be calculated from the data obtained for total cholesterol, HDL and triglyceride. The reductions of various parameters examined are calculated according to the formula.
as §1, §2
2. LDL and VLDL, cholesterol levels will be calculated according to the formula:
[formula] VLDL cholesterol in mg/dl=[Total cholesterol-HDL cholesterol-LDL cholesterol]mg/dl.

In the case of `CCOC(Cc1ccc(NCCCc2ccc(OS(C)(=O)=O)cc2)cc1)C(=O)O` (centres unmarked) (hydrate or solvate) [Example 15, 2-Ethoxy-3-[4-{3-(4-methanesulfonyloxyphenyl)propylamino}phenyl]propionic acid], the melting point is reported as 120 to 122 °C.

Work on `CCOC(Cc1ccc(NC/C=C/c2ccc(OS(C)(=O)=O)cc2)cc1)C(=O)O` (stereo in doubt) [Example 25, (S)-2-Ethoxy-3-{4-[(E)-3-(4-methylsulfonyloxyphenyl)-2-prope-nylamino]phenyl}propionic acid] yielded a melting point of 156 to 158 °C.

Work on `CO[C@@H](Cc1ccc(NCCCc2ccc(OS(C)(=O)=O)cc2)cc1)C(=O)O` [Example 14, (S)-2-Methoxy-3-[4-{3-(4-methanesulfonyloxyphenyl)propylamino}phenyl]propionic acid] yielded a PPARγ (hPPARγ1) of 0.7, a PPARα (hPPARα) of 9.4 and a melting point of 90 to 92 °C.

Compound `CCOC(Cc1ccc(NC(=O)CCc2ccc(OS(C)(=O)=O)cc2)cc1)C(=O)O` (centres unmarked) [Example 34] has a melting point of 164 to 166 °C.

Work on `CCOC(=O)C(Cc1ccc(NC(=O)CCc2ccc(OS(C)(=O)=O)cc2)cc1)OCC` (centres unmarked) [Example 33, Ethyl 2-ethoxy-3-[4-(4-methylsulfonyloxyphenethylcarboxamido)phenyl]-propionate] yielded a melting point of 90 to 92 °C.

In the case of `CCOC(Cc1ccc(NCCCc2ccc(OS(C)(=O)=O)cc2)cc1)C(=O)O` (centres unmarked) [Example 15, 2-Ethoxy-3-[4-{3-(4-methanesulfonyloxyphenyl)propylamino}phenyl]propionic acid], the PPARγ (hPPARγ1) is reported as 0.7 and the PPARα (hPPARα) is reported as 6.1.

`CO[C@@H](Cc1ccc(NC/C=C/c2ccc(OS(C)(=O)=O)cc2)cc1)C(=O)O` (hydrate or solvate) [Example 43, (S)-2-Methoxy-3-[4-{(E)-3-(4-methylsulfonyloxyphenyl)-2-propenylamino}phenyl]propionic acid] showed a melting point of 116 to 118 °C.

Work on `CCOC(Cc1ccc(NC(=O)/C=C/c2ccc(OS(C)(=O)=O)cc2)cc1)C(=O)O` (centres unmarked) [Example 32, 2-Ethoxy-3-{4-[(E)-2-(4-methylsulfonyloxyvhenyl)-1-ethenylcarboxamido]-phenyl}propionic acid] yielded a melting point of 178 to 180 °C.

For `CCOC(=O)[C@H](Cc1ccc(NC/C=C/c2ccc(OS(C)(=O)=O)cc2)cc1)OC` [Example 42, (S) Ethyl 2-methoxy-3-[4-{(E)-3-(4-methylsulfonyloxyphenyl)-2-propenylamino}phenyl]propionate], the “Reduction in Blood Glucose Level (%)” value (C57BL/KsJ-db/db mice) was 63% and the “Triglyceride Lowering (%)” value (C57BL/KsJ-db/db mice) was 56%.

Compound `CCOC(Cc1ccc(NC/C=C/c2ccc(OS(C)(=O)=O)cc2)cc1)C(=O)O` (centres unmarked) [Example 27, 2-Ethoxy-3-{4-[(E)-3-(4-methylsulfonyloxyphenyl)-2-propenylamino]phenyl}propionic acid] has a PPARγ (hPPARγ1) of 0.8 and a PPARα (hPPARα) of 8.5.

With `CO[C@@H](Cc1ccc(NC/C=C/c2ccc(OS(C)(=O)=O)cc2)cc1)C(=O)O` [Example 43, (S)-2-Methoxy-3-[4-{(E)-3-(4-methylsulfonyloxyphenyl)-2-propenylamino}phenyl]propionic acid] the “Increase in High Density Lipoprotein (%)” value [1] was 77%, the “Reduction in Total Cholesterol (%)” value [1] was 53% and the “Triglyceride Lowering (%)” value [1] was 55%. For the same compound, the “Reduction in Low Density Lipoprotein (%)” value ([1]; LDL calculated from total cholesterol, HDL and triglyceride) was 56%.

In the case of `CCOC(Cc1cccc(NCCCc2ccc(OS(C)(=O)=O)cc2)c1)C(=O)O` (centres unmarked) [Example 39, 2-Ethoxy-3-[3-{3-(4-methanesulfonyloxyphenyl)propylamino}phenyl]propionic acid Arginine salt], the “Reduction in Blood Glucose Level (%)” value (C57BL/KsJ-db/db mice) is reported as 56% and the “Triglyceride Lowering (%)” value (C57BL/KsJ-db/db mice) is reported as 36%.

With `CCOC(Cc1ccc(NCCCc2ccc(OS(=O)(=O)c3ccc(C)cc3)cc2)cc1)C(=O)O` (centres unmarked) (hydrate or solvate) [Example 19, 2-ethoxy-3-[4-{3-(4-(toluene-4-sulfonyloxy)phenyl)propylamino}phenyl]propionate] the melting point was 98 to 100 °C.

Work on `CC(C)OC(Cc1ccc(NCCCc2ccc(OS(C)(=O)=O)cc2)cc1)C(=O)O` (centres unmarked) (hydrate or solvate) [Example 21, 2-Isopropoxy-3-[4-{3-(4-methanesulfonyloxyphenyl)propylamino}phenyl]propionic acid] yielded a melting point of 143 to 145 °C.
